Structures can show the parent of a compound that is named as a salt.
Columns and labels:
Assay type in all cases: biochemical
AKT3 = molecular target: T1, AKT3 (Homo sapiens, UniProt Q9Y243); assay: AKT Kinase Assay (IMAP fluorescent polarisation) vs AKT3; conditions: activated AKT3, FAM Crosstide substrate
T1 construct: purchased SignalChem
Experimental: (§1) Testing of the compounds was performed using an AKT Kinase Assay:
(§2) Activated AKT isoforms 1, 2 and 3 were assayed utilising a 5′ FAM Crosstide (Seq. GRPRTSSFAEG-OH). The extent of kinase phosphorylation was determined by fluorescent polarisation using IMAP progressive binding reagent, which introduces binding beads which allow the reagent to specifically bind to phosphate residues via covalent co-ordination complex bonds.
(§3) iMAP binding solution stops Crosstide/kinase interaction and specifically binds phosphorylated substrates. The degree of phosphorylation is determined by fluorescent polarisation (excitation 485 nm; emission 528 nm) or the reduction in speed of rotation of the excited substrate.
(§4) The following materials were used in the assay: • a) Activated AKT isoforms (SignalChem.) dissolved in Complete Reaction buffer at a pre-determined concentration selected so that the assay was carried out in the linear range. • b) AKT substrate peptide: FAM Crosstide (R7110) Molecular Devices, diluted in complete reaction buffer. • c) iMAP Progressive Screening Express Kit (R8127) Molecular Devices • d) Complete Reaction Buffer containing 0.1% BSA, 10 mM Tris-HCl, 10 mM MgCl2, 0.05% NaN3 and 0.01% phosphate free BSA, 1 mM DTT • e) Progressive Binding Solution containing 75% Buffer A, 25% Buffer B and low volume Binding Reagent which contains the binding entity for the assay • f) ATP diluted in complete reaction buffer • g) Black polystyrene 384 well assay plates (Nunc). • h) Biotek Synergy 4 Hybrid Plate reader.
(§5) 50 μl of test compound was dissolved in DMSO (Sigma Aldrich) and serially diluted in complete reaction buffer to give a fourteen point half log dose response and plated into 384 well black plates. The compound was incubated at room temperature with activated AKT isoform ([…]) at the pre-determined concentration, for 45 minutes.
(§6) […] of ATP solution mixed with 2.5 μl of AKT substrate peptide (FAM Crosstide (R7110) Molecular Devices) were dispensed into each well and the plate centrifuged at 1000 rpm for 20 seconds to ensure homogenous mixing of reagents. The reaction mix was incubated in the dark for one hour at room temperature.
(§7) The kinase reaction was stopped by the addition of Progressive Binding Solution and the mixture allowed to equilibrate for one hour in the dark, at room temperature.
(§8) The fluorescent polarisation generated in each well was determined using a […] Synergy 4 Hybrid plate reader. In brief, each reaction solution was excited at 485 nm with the emission measured at 528 nm in both the parallel and perpendicular pathway.
(§9) The polarisation value generated in each well was calculated by Gen5 software (Biotek) and the % inhibition of kinase activity compared to vehicle control was calculated via GraphPad Prism. IC50 values for each compound were calculated by non-linear regression analysis using Prism software.
(§10) All plates were internally controlled by two methods. Firstly, by calculating the signal:noise ratio; based on kinase polarisation without inhibitor and polarisation generated by complete reaction buffer in the absence of activated kinase. Secondly by determining IC50 values generated by known inhibitors of the AKT isoforms.

AKT2 = molecular target: T2, AKT2 (Homo sapiens, UniProt P31751); assay: AKT Kinase Assay (IMAP fluorescent polarisation) vs AKT2; conditions: activated AKT2, FAM Crosstide substrate
T2 construct: purchased SignalChem
Experimental: as §1, §2, §3, §4, §5, §6, §7, §8, §9, §10

AKT1 = molecular target: T3, AKT1 (Homo sapiens, UniProt P31749); assay: AKT Kinase Assay (IMAP fluorescent polarisation) vs AKT1; conditions: activated AKT1, FAM Crosstide substrate
T3 construct: purchased SignalChem
Experimental: as §1, §2, §3, §4, §5, §6, §7, §8, §9, §10

T3 sequence (P31749 whole entry): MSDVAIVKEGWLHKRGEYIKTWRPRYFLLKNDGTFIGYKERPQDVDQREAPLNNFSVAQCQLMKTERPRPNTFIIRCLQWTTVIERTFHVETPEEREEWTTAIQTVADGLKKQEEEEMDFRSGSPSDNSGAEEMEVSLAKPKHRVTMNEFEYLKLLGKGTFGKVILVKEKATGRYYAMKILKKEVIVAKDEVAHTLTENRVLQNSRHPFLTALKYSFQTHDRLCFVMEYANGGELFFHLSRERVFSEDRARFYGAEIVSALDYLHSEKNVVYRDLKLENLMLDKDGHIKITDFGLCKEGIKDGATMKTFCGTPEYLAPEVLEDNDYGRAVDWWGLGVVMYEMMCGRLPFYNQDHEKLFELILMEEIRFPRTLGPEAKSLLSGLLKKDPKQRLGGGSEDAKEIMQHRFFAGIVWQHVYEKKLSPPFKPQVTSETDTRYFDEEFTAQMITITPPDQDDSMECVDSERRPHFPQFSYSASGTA
T2 sequence (P31751 whole entry): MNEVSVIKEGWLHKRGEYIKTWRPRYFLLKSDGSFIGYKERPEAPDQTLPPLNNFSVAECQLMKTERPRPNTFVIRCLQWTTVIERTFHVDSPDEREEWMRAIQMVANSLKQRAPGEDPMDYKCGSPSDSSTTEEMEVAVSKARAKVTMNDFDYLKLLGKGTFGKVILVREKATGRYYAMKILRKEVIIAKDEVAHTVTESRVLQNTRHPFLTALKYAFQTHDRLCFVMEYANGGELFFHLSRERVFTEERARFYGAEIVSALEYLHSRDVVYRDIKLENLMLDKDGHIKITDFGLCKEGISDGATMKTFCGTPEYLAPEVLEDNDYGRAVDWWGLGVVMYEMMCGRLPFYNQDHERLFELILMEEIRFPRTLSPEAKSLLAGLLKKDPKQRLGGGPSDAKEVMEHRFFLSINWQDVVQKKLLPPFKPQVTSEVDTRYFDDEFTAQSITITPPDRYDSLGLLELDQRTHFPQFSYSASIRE
T1 sequence (Q9Y243 whole entry): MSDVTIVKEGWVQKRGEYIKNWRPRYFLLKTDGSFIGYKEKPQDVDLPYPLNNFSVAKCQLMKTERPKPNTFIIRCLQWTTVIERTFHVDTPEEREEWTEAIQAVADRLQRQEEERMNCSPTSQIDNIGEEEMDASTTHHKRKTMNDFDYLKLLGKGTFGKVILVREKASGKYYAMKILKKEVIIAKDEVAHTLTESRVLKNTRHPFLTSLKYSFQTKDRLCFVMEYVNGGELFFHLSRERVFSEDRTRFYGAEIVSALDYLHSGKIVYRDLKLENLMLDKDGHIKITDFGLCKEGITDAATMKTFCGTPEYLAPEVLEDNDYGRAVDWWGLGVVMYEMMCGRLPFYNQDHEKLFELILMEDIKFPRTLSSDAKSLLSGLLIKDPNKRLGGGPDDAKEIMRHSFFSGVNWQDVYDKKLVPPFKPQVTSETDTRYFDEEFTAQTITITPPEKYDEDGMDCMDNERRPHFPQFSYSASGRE

| Structure (SMILES) | IC50 (AKT3) | IC50 (AKT2) | IC50 (AKT1) |
| --- | --- | --- | --- |
| CN(CCO)c1nc2oc(-c3ccc(C4(N)CCC4)cc3)c(-c3ccccc3)c2c(=O)n1C [Example 84, 6-(4-(1-Aminocyclobutyl)phenyl)-2-((2-hydroxyethyl)(methyl)amino)-3-methyl-5-phenylfuro[2,3-d]pyrimidin-4(3H)-one] | > 10000 nM | 100 to 1000 nM | 1000 to 10000 nM |
| COCCNc1nc(OC)c2c(-c3ccccc3)c(-c3ccc(C4(N)CCC4)cc3)oc2n1 [Example 42, 6-(4-(1-Aminocyclobutyl)phenyl)-4-methoxy-N-(2-methoxyethyl)-5-phenylfuro[2,3-d]pyrimidin-2-amine] | > 10000 nM | 100 to 1000 nM | 100 to 1000 nM |
| NC1(c2ccc(-c3oc4c(=O)n(CCF)ccc4c3-c3ccccc3)cc2)CCC1 [Example 130, 2-(4-(1-Aminocyclobutyl)phenyl)-6-(2-fluoroethyl)-3-phenylfuro[2,3-c]pyridin-7(6H)-one] | > 10000 nM | 100 to 1000 nM | 1000 to 10000 nM |
| NC1(c2ccc(-c3oc4cnccc4c3I)cc2)CCC1 [Example 3, 1-(4-(3-Iodofuro[2,3-c]pyridin-2-yl)phenyl)cyclobutanamine] | 1000 to 10000 nM | 1000 to 10000 nM | 1000 to 10000 nM |
| NC1(c2ccc(-c3oc4ccccc4c(=O)c3-c3ccccc3)cc2)CCC1 [Example 29, 2-[4-(1-Amino-cyclobutyl)-phenyl]-3-phenyl-chromen-4-one hydrogen chloride*] | > 10000 nM | 1000 to 10000 nM | 1000 to 10000 nM |
| Cc1nc2oc(-c3ccc(C4(N)CCC4)cc3)c(-c3ccccc3)c2c(=O)n1CC(F)(F)F [Example 123, 6-(4-(1-Aminocyclobutyl)phenyl)-2-methyl-5-phenyl-3-(2,2,2-trifluoroethyl)furo[2,3-d]pyrimidin-4(3H)-one] | 1000 to 10000 nM | ≤ 100 nM | 100 to 1000 nM |
| CNC(=O)c1cn(C)c(=O)c2c(-c3ccccc3)c(-c3ccc(C4(N)CCC4)cc3)oc12 [Example 119, 2-(4-(1-Aminocyclobutyl)phenyl)-N,5-dimethyl-4-oxo-3-phenyl-4,5-dihydrofuro[3,2-c]pyridine-7-carboxamide] | > 10000 nM | 100 to 1000 nM | 100 to 1000 nM |
| NC1(c2ccc(-c3oc4ncc(Cl)nc4c3-c3ccccc3)cc2)CCC1 [Example 134, 1-(4-(2-Chloro-7-phenylfuro[2,3-b]pyrazin-6-yl)phenyl)cyclobutanamine] | > 10000 nM | 1000 to 10000 nM | 100 to 1000 nM |
| NC(=O)c1ccc2oc(-c3ccc(C4(N)CCC4)cc3)c(-c3ccccc3)c2c1 [Example 7, 2-(4-(1-Aminocyclobutyl)phenyl)-3-phenylbenzofuran-5-carboxamide] | > 10000 nM | 100 to 1000 nM | 100 to 1000 nM |
| NC1(c2ccc(-c3c(-c4ccccc4)oc4cccnc34)cc2)CCC1 [Example 23, 1-(4-(2-Phenylfuro[3,2-b]pyridin-3-yl)phenyl)cyclobutanamine] | > 10000 nM | > 10000 nM | > 10000 nM |
| Cn1c(NCCO)nc2oc(-c3ccc(C4(N)CCC4)cc3)c(-c3ccccc3)c2c1=O [Example 64, 6-(4-(1-Aminocyclobutyl)phenyl)-2-(2-hydroxyethylamino)-3-methyl-5-phenylfuro[2,3-d]pyrimidin-4(3H)-one hydrochloride] | 1000 to 10000 nM | 100 to 1000 nM | ≤ 100 nM |
| NC(=O)c1cccc2c(-c3ccccc3)c(-c3ccc(C4(N)CCC4)cc3)oc12 [Example 9, 2-(4-(1-Aminocyclobutyl)phenyl)-3-phenylbenzofuran-7-carboxamide.2HCl] | > 10000 nM | 1000 to 10000 nM | 1000 to 10000 nM |
| COc1ncc(Br)c2oc(-c3ccc(C4(N)CCC4)cc3)c(-c3ccccc3)c12 [Example 80, 1-(4-(7-Bromo-4-methoxy-3-phenylfuro[3,2-c]pyridin-2-yl)phenyl)cyclobutanamine] | > 10000 nM | 1000 to 10000 nM | 100 to 1000 nM |
| Cn1nccc1-c1cnc2oc(-c3ccc(C4(N)CCC4)cc3)c(-c3ccccc3)c2n1 [Example 137, 1-(4-(2-(1-methyl-1H-pyrazol-5-yl)-7-phenylfuro[2,3-b]pyrazin-6-yl)phenyl)cyclobutanamine] | > 10000 nM | 1000 to 10000 nM | 100 to 1000 nM |
| C[C@@H](O)CNc1nc2oc(-c3ccc(C4(N)CCC4)cc3)c(-c3ccccc3)c2c(=O)n1C [Example 62, (R)-6-(4-(1-Aminocyclobutyl)phenyl)-2-((2-hydroxypropyl)amino)-3-methyl-5-phenylfuro[2,3-d]pyrimidin-4(3H)-one] | 1000 to 10000 nM | 100 to 1000 nM | 100 to 1000 nM |
| NC1(c2ccc(-c3oc4ncc(-c5cccnc5)nc4c3-c3ccccc3)cc2)CCC1 [Example 150, 1-(4-(7-Phenyl-2-(pyridin-3-yl)furo[2,3-b]pyrazin-6-yl)phenyl)cyclobutanamine, 2HCl] | > 10000 nM | 100 to 1000 nM | 1000 to 10000 nM |
| Cn1cc(-c2cnc3oc(-c4ccc(C5(N)CCC5)cc4)c(-c4ccccc4)c3n2)cn1 [Example 136, 1-(4-(2-(1-Methyl-1H-pyrazol-4-yl)-7-phenylfuro[2,3-b]pyrazin-6-yl)phenyl)cyclobutanamine] | > 10000 nM | 1000 to 10000 nM | 1000 to 10000 nM |
| COc1nc(N2CCN(CCN(C)C)CC2)nc2oc(-c3ccc(C4(N)CCC4)cc3)c(-c3ccccc3)c12 [Example 33, 1-(4-(2-(4-(2-(Dimethylamino)ethyl)piperazin-1-yl)-4-methoxy-5-phenylfuro[2,3-d]pyrimidin-6-yl)phenyl)cyclobutanamine] | 1000 to 10000 nM | 100 to 1000 nM | 100 to 1000 nM |
| CCOc1nc(N2CCNCC2)nc2oc(-c3ccc(C4(N)CCC4)cc3)c(-c3ccccc3)c12 [Example 46, 1-(4-(4-Ethoxy-5-phenyl-2-(piperazin-14)furo[2,3-d]pyrimidin-6-yl)phenyl)cyclobutanamine, HCl] | 100 to 1000 nM | 100 to 1000 nM | 100 to 1000 nM |
| NC(=O)c1cccc(-c2cnc3oc(-c4ccc(C5(N)CCC5)cc4)c(-c4ccccc4)c3n2)c1 [Example 152, 3-(6-(4-(1-Aminocyclobutyl)phenyl)-7-phenylfuro[2,3-b]pyrazin-2-yl)benzamide, HCl] | > 10000 nM | 1000 to 10000 nM | 100 to 1000 nM |
| NC1(c2ccc(-c3oc4ncc(-c5cnn[nH]5)nc4c3-c3ccccc3)cc2)CCC1 [Example 147, 1-(4-(7-Phenyl-2-(1H-1,2,3-triazol-5-yl)furo[2,3-b]pyrazin-6-yl)phenyl)cyclobutanamine] | > 10000 nM | 1000 to 10000 nM | 1000 to 10000 nM |
| COc1ncnc2oc(-c3ccc(C4(N)CCC4)cc3)c(-c3ccccc3)c12 [Example 78, 1-(4-(4-Methoxy-5-phenylfuro[2,3-d]pyrimidin-6-yl)phenyl)cyclobutanamine] | > 10000 nM | 100 to 1000 nM | ≤ 100 nM |
| COc1nc(N(C)C)nc2oc(-c3ccc(C4(N)CCC4)cc3)c(-c3ccccc3)c12 [Example 26, 6-(4-(1-Aminocyclobutyl)phenyl)-4-methoxy-N,N-dimethyl-5-phenylfuro[2,3-d]pyrimidin-2-amine] | > 10000 nM | 1000 to 10000 nM | 100 to 1000 nM |
| Cn1cc(-c2cn(C)c(=O)c3c(-c4ccccc4)c(-c4ccc(C5(N)CCC5)cc4)oc23)cn1 [Example 114, 2-(4-(1-Aminocyclobutyl)phenyl)-5-methyl-7-(1-methyl-1H-pyrazol-4-yl)-3-phenylfuro[3,2-c]pyridin-4(5H)-one] | 1000 to 10000 nM | 100 to 1000 nM | 100 to 1000 nM |
| COc1nc(OC)c2c(-c3ccccc3)c(-c3ccc(C4(N)CCC4)cc3)oc2n1 [Example 49, 1-(4-(2,4-Dimethoxy-5-phenylfuro[2,3-d]pyrimidin-6-yl)phenyl)cyclobutanamine] | > 10000 nM | 100 to 1000 nM | ≤ 100 nM |
| COc1ncc(Br)c2c(-c3ccccc3)c(-c3ccc(C4(N)CCC4)cc3)oc12 [Example 132, 1-(4-(4-Bromo-7-methoxy-3-phenylfuro[2,3-c]pyridin-2-yl)phenyl)cyclobutanamine] | > 10000 nM | 100 to 1000 nM | 100 to 1000 nM |
